# System: human FLS cells
# Test: IL-6 production in human FLS cells stimulated with TGF-β (ELISA)
# Assay type: cell-based
# Conditions: FIG. 4
# Experimental: Tissue culture supernatants were harvested from human FLS cells after stimulation for 24 hr with TGF-β with and without IDR-1002. The supernatants were centrifuged at 1500×g for 7 min to obtain cell-free samples. The samples were aliquoted and stored at −20° C. until further use. Production of IL-6 in the tissue culture supernatants was monitored using Quantikine® human […] ELISA following the manufacturer's instructions. […] FLS cells stimulated with TGF-β produced more than 500 pg/ml of IL-6. […] Results shown are an average of at least three independent biological experiments performed with cells isolated from synovial tissues obtained from independent donors±standard error (*p<0.05, **p<0.01).
sequence,measurement,setting,value
VQRWLIVWRIRK (IDR-1002 peptide),reduction in TGF-β-induced IL-6 production,"TGF-β with IDR-1002, 24 hr",more than 50%
same,IL-6 production by IDR-1002 alone,"no TGF-β, 24 hr",did not stimulate production of IL-6

# From patent US20130316963A1, “INNATE DEFENCE REGULATORY PEPTIDE COMPOSITIONS FOR TREATMENT OF ARTHRITIS” (UNIVERSITY OF MANITOBA, priority 2010, published 2013)
